Test: ABTS radical cation assay
Assay type: biochemical
Conditions: RoxP peptides, ABTS assay (Example 12), increased with concentration
Method: FIG. 4: RoxP antioxidant activity under adverse conditions. The ability of RoxP to reduce ABTS radical cations, denoted by a decrease in absorbance at 734 nm, was tested in multiple settings. Different concentrations of recombinant RoxP (rRoxP) (0.2-3.2 μM) in sodium phosphate buffer (20 mM, pH 7.4) (A), rRoxP (2.7 μM) incubated with salt solutions (B), pre-heated rRoxP (2.7 μM) incubated for 20 min in temperatures ranging from RT to 98° C. and allowed to cool down to ambient temperature prior to activity measurements (C), or rRoxP (2 μM) stored at room temperature for up to 2 weeks (D) were added to a solution of pre-formed ABTS radicals and the absorbance recorded after 30 sec.
The reduction of pre-formed ABTS radical cations in the presence of RoxP was analysed using a spectrophotometric assay previously described by Re et al. (1999 Free Radic Biol Med 26:1231-1237). 2,2′-azinobis(3-ethylbenzothiazoline-6-sulfonic acid) diammonium salt (ABTS) (Sigma-Aldrich) was initially dissolved in ddH2O to a concentration of […]. Potassium persulfate (Merck KGaA, Darmstadt, Germany) was subsequently added to a final concentration of 2.45 mM and the resulting solution kept dark and incubated overnight at RT. Formed ABTS radicals were diluted with PBS (pH 7.4) until reaching an absorbance of approximately 0.7 at 734 nm. Antioxidants (1.7 μM) were added (1:9 v/v) and the absorbance spectrum 500 to 900 nm recorded after 30 sec.

| Sequence | antioxidant activity |
| --- | --- |
| RTLSYCAYPHYVN (Cutibacterium acnes) [RoxP-Peptide 2] | display antioxidant activity |
| VRADGYQESMVTRVLDDK (Cutibacterium acnes) [RoxP-Peptide 1] | display antioxidant activity |

Source: patent US20220000762A1, “COMPOSITIONS FOR TREATING OXIDATIVE STRESS-ASSOCIATED SKIN DISEASES AND SKIN AGEING AND DIAGNOSIS OF OXIDATIVE STRESS-ASSOCIATED SKIN DISEASES” (priority 2019, published 2022)
